Test results from US7531557B2, “Diaryl ethers as opioid receptor antagonists” (Eli Lilly and Company, priority 2002, dated 2009).

How the values were obtained:
Diet Induced Obese Rat = experiment: Indirect calorimetry assay (food consumption, energy balance); assay type: in vivo; details: for Energy Balance Diet Induced Obese Rat: test dose 3 mg/kg, energy balance = caloric intake minus utilization
Experimental: Indirect Calorimetry Assay
Twenty-four-hour energy expenditure (EE) and respiratory quotient (RQ) were measured by indirect calorimetry using an open circuit calorimetry system (Oxymax, Columbus Instruments Int. Corp., USA). RQ is the ratio of the volume of CO2 produced (VCO2) to the volume of O2 consumed (VO2). EE was calculated as the product of calorific value of oxygen (CV) and VO2 per kilogram of body weight, where CV=3.815+1.232 (RQ). Total calories expended were calculated to determine daily fuel utilization. To calculate the proportion of protein, fat and carbohydrate that is used during that 24-hour period, we used Flatt's proposal (see, Flatt J P 1991 Assessment of daily and cumulative carbohydrate and fat balances in mice. J Nutr Biochem 2:193-202.) and formulae as well as other derived constants (see Elia M, Livesey G 1992 Energy expenditure and fuel selection in biological systems: the theory and practice of calculations based on indirect calorimetry and tracer methods. World Rev Nutr Diet 70:68-131.). Food consumption over the 24-hour period was also measured. […] Results obtained for a sample of compounds of the invention with the indirect calorimetry assay are shown below in Table 4.

Rat = experiment: Acute feeding assay (Rat Obesity assay); assay type: in vivo
Excerpt: Acute Feeding Assay (Rat Obesity Assay)
The efficacy of compounds of the present invention has been further verified by the results of a Rat Obesity assay shown in Table 3.

[1] = tested on: mu, delta and kappa receptors in rat striatum/nucleus accumbens; experiment: Ex-vivo receptor binding of 3H-diprenorphine in rat brain after oral dosing; details: 7 mg/kg p.o., 6 hours after administration, striatum/nucleus accumbens homogenate, versus vehicle
[2] = former clinical trial candidate, development discontinued; cited from earlier work
[3] = tested on: dietary induced obese rats; details: cited from earlier work

For “4-(4-Pentylaminomethyl-phenoxy)-benzamide [Example 290]”, the “Inhibition of Feeding Diet Induced Obese Rat Minimum Effective Dose (MED)” value (Diet Induced Obese Rat; p.o., lowest dose with food consumption over 24 hours significantly different from vehicle) was 3 mg/kg, the “Energy Balance Diet Induced Obese Rat” value (Diet Induced Obese Rat; p.o.) was -65 kcal/kg/day and the “Doses in ug/kg to achieve effective inhibition” value (Rat) was 3 µg/kg.
In the case of C[C@H]1CN(CC[C@H](O)C2CCCCC2)CC[C@@]1(C)c1cccc(O)c1 [LY255582, reference compound], the “Ex Vivo Binding [3H]-Diprenorphine % Inhibition of at 6 hours 7 mg/kg of test compound” value [1] is reported as >40%, the minimal effective dose (Diet Induced Obese Rat; Rattus norvegicus, po, lowest dose with food consumption over 24 hours significantly different from vehicle, read-out: Inhibition of Feeding Diet Induced Obese Rat Minimum Effective Dose (MED)) is reported as 1 mg/kg and the “Energy Balance Diet Induced Obese Rat” value (Diet Induced Obese Rat; p.o.) is reported as -36 kcal/kg/day. For the same compound, the human oral bioavailability [2] was “lack of satisfactory human oral bioavailability”, the “energy balance and total body mass” value ([3]; chronic treatment, dietary induced obese rats fed a high fat diet) was “sustained negative energy balance leading to a decrease in total body mass” and the food intake ([3]; oral administration, acute and chronic treatment in rats) was “robust reductions in food intake”.
